# Data published in ChEMBL document CHEMBL3507680, “University of Dundee, Gates Library screen for HepG2 cell viability”.
# Test: Human HepG2 cell viability assay in 384 well format
# Type: toxicity, cell-based
# Parameters: dose 125 nL, time 70.5 hour; concentration not given beside the values
# Settings: HepG2 cells, read-out: Inhibition
row,Compound,cytotoxicity at 70.5 h
1,CN(Cc1cnn(C)c1)CC(O)c1ccc2c(c1)OCCCO2 (stereo not given),17.4%
2,Cc1noc(OCCOc2ccc(C#N)cc2)n1,5.31%
3,Cn1c(CN2CCOCC2)cc(=O)c(O)c1CN1CCCC1,-6.51%
4,CC(C)n1nnc(CC(=O)NCC2(c3ccccc3F)CCCC2)n1,-10.2%
5,OC1CCN(c2cnnc3ccccc23)CC1,30.5%
6,CN(Cc1nc(N)c2ccccc2n1)CC1CCCN1c1cccnn1 (stereo not given),-16.6%
7,Cc1cccc(CS(=O)(=O)Cc2ccn(C)c(=O)c2)c1,-12.8%
8,CCC(=O)Nc1ccc2c(c1)C1(CCOCC1)CN2CCF,16.7%
9,CCOCC(=O)N1CCn2cc(CN(C)Cc3ccco3)nc2C1,-0.359%
10,Cc1cnn(CC(C)NCc2csc(-c3ccsc3)n2)c1 (stereo not given),-0.817%
11,CC(=O)Nc1ncc(S(=O)(=O)N2CCN(C3CCCCC3)CC2)s1,-5.13%
12,COc1ccccc1OCC(=O)NCC(C)(O)C1CC1 (stereo not given),-15.3%
13,COCCN1CCc2cc(C(=O)N(C)C)c(NC(C)C)nc2CC1,-8.98%
14,Cc1ccc(CC(=O)N2CCOCC2c2c(C)n[nH]c2C)cc1 (stereo not given),-21.7%
15,O=C(c1ccc(S(=O)(=O)NC2CCC2)cc1)N1CC[C@H]2CNC[C@H]21,-3.93%
16,CN(CCNC(=O)N1CCN(Cc2ccon2)CC1)C1CCCC1,-1.48%
17,COc1ncc(CN(C)C2CCN(C(C)C)CC2)cn1,8.08%
18,CCOc1ncccc1NC(=O)NCC(O)c1ccc(OC)cc1 (stereo not given),19.2%
19,c1cc(COC[C@]23COC[C@H]2CN(Cc2ccncc2)C3)ccn1,9.04%
20,CC(C)(C)c1ncc(S(C)(=O)=O)c(C2CCCNC2)n1 (stereo not given),-6.75%
21,COCCOc1ncccc1CNCc1c(C)nn(C)c1N(C)C,2.93%
22,CCC(C)Sc1ncc(-c2c(C#N)c(N)nc3c2COCC3)cn1 (stereo not given),6.03%
23,CN1CCN(c2ccc(CO)cc2F)CC1,-8.87%

row,Compound,cytotoxicity at 70.5 h
1,CCCc1nc(C)cc(N2CCC3(CCC(=O)N(CC4CC4)C3)CC2)n1,-11.1%
2,CC(C)CC(=O)NCc1cccc(OCCN(C)C2CCOCC2)c1,-4.5%
3,N#Cc1ccc(CNc2ncc(C#N)cc2Cl)cc1,0.2%
4,CS(=O)(=O)c1ccc(CNC(=O)N2CCC(CO)CC2)cc1,-2.86%
5,CN(Cc1ccco1)[C@@H]1CN(Cc2ccoc2)C[C@@H]2CCCO[C@@H]21,-7.61%
6,COCC(NC(=O)c1ccoc1)c1ccc(C)o1 (stereo not given),-2.43%
7,O=C(COc1cccc(F)c1)N1CCCCC1c1ccn2ccnc2n1 (stereo not given),-9.3%
8,CC(C)CN1CCn2nc(CNc3ncnc4[nH]ccc34)cc2C1,7.26%
9,CN(C)CCNC(=O)Nc1cccc(C[S+]([O-])Cc2ccccc2)c1 (stereo not given),-2.04%
10,CC(C)(C)NS(=O)(=O)c1ccccc1CNCc1ccccc1,-5.72%
11,Cc1ncsc1CCN(C)C(=O)C(c1cccnc1)N1CCOCC1 (stereo not given),-5.13%
12,Cc1ccc(NCc2cn3c(n2)CN(Cc2ccc(C)o2)CC3)nn1,-4.46%
13,Cc1cn[nH]c1C1COCCN1Cc1c[nH]cn1 (stereo not given),4.32%
14,CC(C)(C)CNC(=O)c1ccc(C(=O)O)cn1,23.3%
15,CN(C)C(=O)COC[C@H]1CC[C@@H]2[C@@H](CCN2Cc2ccccn2)O1,-7.44%
16,Cc1ccc(NC2CCN(C(=O)Cc3csc(C)n3)CC2)nn1,-9.75%
17,Cn1c(=O)ccn(CC(=O)NCC2Cc3ccccc3O2)c1=O (stereo not given),-0.993%
18,Cc1cc(C)nc(CNC(=O)C(c2cccnc2)N2CCOCC2)n1 (stereo not given),-6.63%
19,Cc1ccc(-c2ccnc(NC(C)c3n[nH]c(C)n3)n2)c(C)n1 (stereo not given),-9.42%
20,Cc1c(NCc2ccc(C#N)cc2)cccc1S(=O)(=O)NC1CC1,1.12%
21,Cc1n[nH]c(C)c1CCN(C)C(=O)C(c1cccnc1)N1CCOCC1 (stereo not given),-4.73%
22,CC(=O)Nc1ccc(C(=O)Nc2cnc3n2CCCC3)cc1C,5.91%
